According to US11555012B2 (Nimbus Artemis, Inc., priority 2018, dated 2023):
Read-outs that look alike come from different tables or passages of the source.

Experiments:
ACL [1] = molecular target: T1, ACL (Homo sapiens (Human), UniProt P53396); assay: ACLY-MDH Coupled Assay
Target sequence in this assay (P53396 whole entry, species assumed): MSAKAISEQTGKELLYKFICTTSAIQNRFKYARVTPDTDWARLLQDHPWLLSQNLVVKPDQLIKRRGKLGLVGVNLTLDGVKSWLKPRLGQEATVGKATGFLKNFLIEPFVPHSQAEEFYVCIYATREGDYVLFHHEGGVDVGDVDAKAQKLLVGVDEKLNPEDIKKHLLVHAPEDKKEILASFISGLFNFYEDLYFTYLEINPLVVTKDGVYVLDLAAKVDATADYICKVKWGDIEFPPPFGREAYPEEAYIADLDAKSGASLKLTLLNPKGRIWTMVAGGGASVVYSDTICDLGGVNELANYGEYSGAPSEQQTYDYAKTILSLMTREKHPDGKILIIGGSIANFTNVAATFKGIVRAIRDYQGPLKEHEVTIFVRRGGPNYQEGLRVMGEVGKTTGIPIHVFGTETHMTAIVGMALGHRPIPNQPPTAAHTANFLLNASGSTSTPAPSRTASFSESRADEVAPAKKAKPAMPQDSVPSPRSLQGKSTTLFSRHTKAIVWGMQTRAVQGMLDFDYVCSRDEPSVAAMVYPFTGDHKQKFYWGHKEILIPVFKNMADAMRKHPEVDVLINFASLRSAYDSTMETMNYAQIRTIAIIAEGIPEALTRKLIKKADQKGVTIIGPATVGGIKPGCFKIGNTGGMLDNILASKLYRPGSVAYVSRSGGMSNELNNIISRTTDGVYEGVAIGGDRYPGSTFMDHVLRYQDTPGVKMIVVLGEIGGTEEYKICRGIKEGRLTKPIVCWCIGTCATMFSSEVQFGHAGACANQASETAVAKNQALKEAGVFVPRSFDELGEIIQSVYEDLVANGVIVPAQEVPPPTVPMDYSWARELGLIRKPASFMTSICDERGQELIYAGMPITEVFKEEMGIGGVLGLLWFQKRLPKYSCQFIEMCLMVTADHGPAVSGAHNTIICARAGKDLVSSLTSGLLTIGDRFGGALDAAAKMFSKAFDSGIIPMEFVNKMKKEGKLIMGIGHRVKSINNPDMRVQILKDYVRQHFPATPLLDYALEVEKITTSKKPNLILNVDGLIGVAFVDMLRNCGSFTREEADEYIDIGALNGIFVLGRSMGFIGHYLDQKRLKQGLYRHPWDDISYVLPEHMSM
Experimental: Compounds of the present invention were evaluated in an ACLY Coupled Assay.
The assay protocol for the Coupled Assay (below) was followed:
b) Add 1 μL cpds to 96 assay plate, Test cpd conc: 100/30/10 μM top dose, 3 folds dilution, 10+0+control (control: buffer without ACL+DMSO) points, 1000 rpm for 1 min, incubation at 25° C. for 60 min

ACL [2] = molecular target: T1, ACL; assay: ADP-Glo Assay
Target sequence in this assay (P53396 other isoform, or with tags, fused parts or gaps isoform P53396-2): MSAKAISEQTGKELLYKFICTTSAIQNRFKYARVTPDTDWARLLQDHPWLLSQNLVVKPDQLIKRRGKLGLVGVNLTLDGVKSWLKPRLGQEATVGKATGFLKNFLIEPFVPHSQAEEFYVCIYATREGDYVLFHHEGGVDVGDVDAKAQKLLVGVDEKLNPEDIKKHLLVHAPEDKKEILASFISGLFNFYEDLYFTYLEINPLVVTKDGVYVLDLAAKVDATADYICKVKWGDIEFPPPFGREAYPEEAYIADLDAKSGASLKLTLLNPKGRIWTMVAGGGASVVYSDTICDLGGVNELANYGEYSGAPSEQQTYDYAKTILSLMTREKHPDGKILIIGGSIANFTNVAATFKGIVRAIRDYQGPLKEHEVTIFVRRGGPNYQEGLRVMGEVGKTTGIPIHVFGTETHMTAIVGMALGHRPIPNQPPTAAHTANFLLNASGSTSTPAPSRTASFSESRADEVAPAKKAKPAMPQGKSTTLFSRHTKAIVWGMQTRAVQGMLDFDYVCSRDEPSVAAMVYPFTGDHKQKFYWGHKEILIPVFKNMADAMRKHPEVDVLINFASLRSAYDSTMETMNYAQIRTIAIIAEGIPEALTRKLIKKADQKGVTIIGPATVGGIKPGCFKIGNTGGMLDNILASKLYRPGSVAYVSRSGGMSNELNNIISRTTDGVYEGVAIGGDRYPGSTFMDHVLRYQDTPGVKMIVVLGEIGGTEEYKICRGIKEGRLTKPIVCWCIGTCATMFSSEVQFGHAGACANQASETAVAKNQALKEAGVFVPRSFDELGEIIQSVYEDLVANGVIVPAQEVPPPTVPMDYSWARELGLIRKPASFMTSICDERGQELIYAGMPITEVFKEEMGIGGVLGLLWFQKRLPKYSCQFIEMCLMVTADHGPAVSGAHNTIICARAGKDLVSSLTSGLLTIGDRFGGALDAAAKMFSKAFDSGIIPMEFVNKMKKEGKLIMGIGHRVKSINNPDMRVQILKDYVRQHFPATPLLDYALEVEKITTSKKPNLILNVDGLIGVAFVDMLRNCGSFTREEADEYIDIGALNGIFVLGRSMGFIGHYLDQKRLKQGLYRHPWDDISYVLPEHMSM

HepG2 cells [3] = details: Homo sapiens, HepG2, read-out: ACLY HepG2 14C-Pyruvate Assay serum free IC50 Cholesterol (IC50) [μM]
HepG2 cells [4] = details: Homo sapiens, HepG2, read-out: ACLY HepG2 14C-Pyruvate Assay serum free IC50 FA (IC50) [μM]
[5] = read-out: ACL-ADP-Glo (IC50), 3 nM ACL, 15 μM ATP, 3 μM CoA, 300 μM Citrate
[6] = read-out: ACL-MDH Coupled Assay (IC50), 8 nM ACL, 60 μM CoA Na2, 85 μM Citrate, 250 μM ATP, 250 μM NADH

Compound: O=S(=O)(Nc1ccccc1OCc1ccccc1)c1cc(Cl)cc(Cl)c1O [I-15, N-(2-(benzyloxy)phenyl)-3,5-dichloro-2-hydroxybenzenesulfonamide]
- IC50 (ACL [1]): 0.5 to 30 µM
- IC50 (ACL [2]): 0.5 to 20 µM
- IC50 (HepG2 cells [3]): 1 to 5 µM
- IC50 (HepG2 cells [4]): 1 to 10 µM

Compound: O=S(=O)(NC(c1ccccc1)c1ccccc1)c1cc(Cl)cc(Cl)c1O [I-16, N-benzhydry1-3,5-dichloro-2-hydroxybenzenesulfonamide]
- IC50 (ACL [1]): 0.5 to 30 µM
- IC50 (ACL [2]): 0.5 to 20 µM
- IC50 (HepG2 cells [3]): 1 to 5 µM
- IC50 (HepG2 cells [4]): 1 to 10 µM

Compound: COc1ccc(-c2ccccc2)cc1NS(=O)(=O)c1cc(Cl)cc(Br)c1O [I-20, 3-bromo-5-chloro-2-hydroxy-N-(2-methoxy-5-phenylphenyl)benzene-1-sulfonamide]
- IC50 (ACL [1]): < 0.05 µM
- IC50 (ACL [2]): 0.05 to 0.5 µM
- IC50 (HepG2 cells [3]): 1 to 5 µM
- IC50 (HepG2 cells [4]): 1 to 10 µM

Compound: COc1ccc(-c2ccccc2)cc1NS(=O)(=O)c1cc(Br)cc(Cl)c1O [I-21, 5-bromo-3-chloro-2-hydroxy-N-(2-methoxy-5-phenylphenyl)benzene-1-sulfonamide]
- IC50 (ACL [1]): 0.05 to 0.5 µM
- IC50 (ACL [2]): 0.05 to 0.5 µM
- IC50 (HepG2 cells [3]): 1 to 5 µM
- IC50 (HepG2 cells [4]): 1 to 10 µM

Compound: O=S(=O)(Nc1cc(-c2ccccc2)ccc1F)c1cc(Cl)cc(Br)c1O [I-23, 3-bromo-5-chloro-N-(4-fluoro-[1,1′-biphenyl]-3-yl)-2-hydroxybenzenesulfonamide]
- IC50 (ACL [1]): < 0.05 µM
- IC50 (ACL [2]): 0.05 to 0.5 µM
- IC50 (HepG2 cells [3]): 1 to 5 µM
- IC50 (HepG2 cells [4]): 1 to 10 µM

Compound: N#Cc1cc(Cl)c(O)c(S(=O)(=O)Nc2cc(-c3ccccc3)ccc2F)c1 [I-31, 3-chloro-5-cyano-N-(4-fluoro-[1,1′-biphenyl]-3-yl)-2-hydroxybenzenesulfonamide]
- IC50 (ACL [1]): 0.05 to 0.5 µM
- IC50 (ACL [2]; [5]): < 0.05 µM
- IC50 (HepG2 cells [3]): 1 to 5 µM
- IC50 (HepG2 cells [4]): > 10 µM

Compound: O=S(=O)(Nc1cc(-c2ccccc2)ccc1F)c1cccc(Cl)c1O [I-33, 3-chloro-N-(4-fluoro-[1,1′-biphenyl]-3-yl)-2-hydroxybenzenesulfonamide]
- IC50 (ACL [1]): 0.5 to 30 µM
- IC50 (ACL [2]): 0.05 to 0.5 µM
- IC50 (HepG2 cells [3]): 1 to 5 µM
- IC50 (HepG2 cells [4]): > 10 µM

Compound: O=S(=O)(Nc1cc(-c2ccccc2)ccc1F)c1cc(Br)cc(Cl)c1O [I-34, 5-bromo-3-chloro-N-(2-fluoro-5-phenylphenyl)-2-hydroxybenzene-1-sulfonamide]
- IC50 (ACL [1]): < 0.05 µM
- IC50 (ACL [2]): 0.05 to 0.5 µM
- IC50 (HepG2 cells [3]): 1 to 5 µM
- IC50 (HepG2 cells [4]): > 10 µM

Compound: O=S(=O)(c1cc(Cl)cc(Br)c1O)N(Cc1ccccc1)c1cc(-c2ccccc2)ccc1F [I-36, N-benzyl-3-bromo-5-chloro-N-(4-fluoro-[1,1′-biphenyl]-3-yl)-2-hydroxybenzenesulfonamide]
- IC50 (ACL [1]): 0.5 to 30 µM
- IC50 (ACL [2]): 0.5 to 20 µM
- IC50 (HepG2 cells [3]): 1 to 5 µM
- IC50 (HepG2 cells [4]): 1 to 10 µM

Compound: O=S(=O)(Nc1cc(-c2ccccc2)c(F)cc1F)c1cc(Cl)cc(Cl)c1O [I-41, 3,5-dichloro-N-(2,4-difluoro-5-phenylphenyl)-2-hydroxybenzene-1-sulfonamide]
- IC50 (ACL [1]; [6]): < 0.05 µM
- IC50 (ACL [2]; [5]): < 0.05 µM
- IC50 (HepG2 cells [3]): 1 to 5 µM
- IC50 (HepG2 cells [4]): > 10 µM

Compound: COC(=O)c1cc(Cl)c(O)c(S(=O)(=O)Nc2cc(-c3ccccc3)ccc2F)c1 [I-47, Methyl 3-chloro-5-(N-(4-fluoro-[1,1′-biphenyl]-3-yl)sulfamoyl)-4-hydroxybenzoate]
- IC50 (ACL [1]; [6]): < 0.05 µM
- IC50 (ACL [2]; [5]): < 0.05 µM
- IC50 (HepG2 cells [3]): 1 to 5 µM
- IC50 (HepG2 cells [4]): 1 to 10 µM

Compound: COC(=O)c1cc(Cl)c(O)c(S(=O)(=O)Nc2cc(-c3cccnc3)ccc2OC)c1 [I-48, Methyl 3-chloro-4-hydroxy-5-(N-(2-methoxy-5-(pyridin-3-yl)phenyl)sulfamoyl)benzoate]
- IC50 (ACL [1]): 0.5 to 30 µM
- IC50 (ACL [2]): 0.05 to 0.5 µM
- IC50 (HepG2 cells [3]): 1 to 5 µM
- IC50 (HepG2 cells [4]): > 10 µM

Compound: COc1ccc(-c2ccccc2)cc1NS(=O)(=O)c1cc(-c2ncco2)cc(Cl)c1O [I-59, 3-chloro-2-hydroxy-N-(2-methoxy-5-phenylphenyl)-5-(1,3-oxazol-2-yl)benzene-1-sulfonamide]
- IC50 (ACL [1]): 0.05 to 0.5 µM
- IC50 (ACL [2]): 0.05 to 0.5 µM
- IC50 (HepG2 cells [3]): 1 to 5 µM
- IC50 (HepG2 cells [4]): > 10 µM
